Laboratory results taken from ChEMBL document CHEMBL1150977, “A quantitative analysis of kinase inhibitor selectivity” (Nat Biotechnol, 2008).

Experiments:
[1] = molecular target: T1, Dual specificity mitogen-activated protein kinase kinase 4 (Homo sapiens, UniProt P45985)
T1 sequence (P45985 whole entry): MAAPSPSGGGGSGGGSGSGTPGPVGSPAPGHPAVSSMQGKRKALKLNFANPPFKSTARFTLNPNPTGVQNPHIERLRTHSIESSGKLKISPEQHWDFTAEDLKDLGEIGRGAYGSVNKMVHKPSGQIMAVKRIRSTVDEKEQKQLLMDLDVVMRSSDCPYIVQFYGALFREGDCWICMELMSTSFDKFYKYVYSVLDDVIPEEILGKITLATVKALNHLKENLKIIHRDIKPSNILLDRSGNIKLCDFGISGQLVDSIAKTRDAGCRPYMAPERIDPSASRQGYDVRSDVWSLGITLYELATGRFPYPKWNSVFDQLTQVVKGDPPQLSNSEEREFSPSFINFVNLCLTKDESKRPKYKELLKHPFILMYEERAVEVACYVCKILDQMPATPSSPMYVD

[2] = molecular target: Tyrosine-protein kinase Lyn (Homo sapiens, UniProt P07948)
[3] = molecular target: Serine/threonine-protein kinase PLK1 (Homo sapiens, UniProt P53350)
[4] = molecular target: T2, Ankyrin repeat and protein kinase domain-containing protein 1 (Homo sapiens, UniProt Q8NFD2)
T2 sequence (Q8NFD2 whole entry): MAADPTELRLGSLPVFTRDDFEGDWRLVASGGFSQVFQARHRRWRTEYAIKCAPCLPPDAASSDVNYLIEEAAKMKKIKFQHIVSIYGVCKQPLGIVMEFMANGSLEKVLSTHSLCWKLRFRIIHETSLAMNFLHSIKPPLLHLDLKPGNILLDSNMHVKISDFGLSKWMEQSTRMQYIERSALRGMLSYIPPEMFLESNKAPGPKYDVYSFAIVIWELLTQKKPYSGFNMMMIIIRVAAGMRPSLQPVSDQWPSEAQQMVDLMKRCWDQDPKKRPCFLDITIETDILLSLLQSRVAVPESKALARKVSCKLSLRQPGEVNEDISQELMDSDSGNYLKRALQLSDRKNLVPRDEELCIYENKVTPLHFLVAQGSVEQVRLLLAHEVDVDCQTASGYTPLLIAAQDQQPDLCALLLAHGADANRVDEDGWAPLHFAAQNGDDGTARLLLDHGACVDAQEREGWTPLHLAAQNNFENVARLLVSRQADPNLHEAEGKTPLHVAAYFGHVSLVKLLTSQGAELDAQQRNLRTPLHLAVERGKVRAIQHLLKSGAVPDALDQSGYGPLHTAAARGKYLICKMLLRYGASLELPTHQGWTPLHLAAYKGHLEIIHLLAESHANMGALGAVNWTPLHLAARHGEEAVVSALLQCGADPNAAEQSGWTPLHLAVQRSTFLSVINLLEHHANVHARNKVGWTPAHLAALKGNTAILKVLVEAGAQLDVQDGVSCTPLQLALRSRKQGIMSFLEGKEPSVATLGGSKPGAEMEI

[5] = molecular target: Protein kinase C eta type (Homo sapiens, UniProt P24723)
[6] = molecular target: Ribosomal protein S6 kinase alpha-2 (Homo sapiens, UniProt Q15349)
[7] = molecular target: Receptor-type tyrosine-protein kinase FLT3 (Homo sapiens, UniProt P36888, N841I)
[8] = molecular target: T3, Serine/threonine-protein kinase TNNI3K (Homo sapiens, UniProt Q59H18)
T3 sequence (Q59H18 whole entry): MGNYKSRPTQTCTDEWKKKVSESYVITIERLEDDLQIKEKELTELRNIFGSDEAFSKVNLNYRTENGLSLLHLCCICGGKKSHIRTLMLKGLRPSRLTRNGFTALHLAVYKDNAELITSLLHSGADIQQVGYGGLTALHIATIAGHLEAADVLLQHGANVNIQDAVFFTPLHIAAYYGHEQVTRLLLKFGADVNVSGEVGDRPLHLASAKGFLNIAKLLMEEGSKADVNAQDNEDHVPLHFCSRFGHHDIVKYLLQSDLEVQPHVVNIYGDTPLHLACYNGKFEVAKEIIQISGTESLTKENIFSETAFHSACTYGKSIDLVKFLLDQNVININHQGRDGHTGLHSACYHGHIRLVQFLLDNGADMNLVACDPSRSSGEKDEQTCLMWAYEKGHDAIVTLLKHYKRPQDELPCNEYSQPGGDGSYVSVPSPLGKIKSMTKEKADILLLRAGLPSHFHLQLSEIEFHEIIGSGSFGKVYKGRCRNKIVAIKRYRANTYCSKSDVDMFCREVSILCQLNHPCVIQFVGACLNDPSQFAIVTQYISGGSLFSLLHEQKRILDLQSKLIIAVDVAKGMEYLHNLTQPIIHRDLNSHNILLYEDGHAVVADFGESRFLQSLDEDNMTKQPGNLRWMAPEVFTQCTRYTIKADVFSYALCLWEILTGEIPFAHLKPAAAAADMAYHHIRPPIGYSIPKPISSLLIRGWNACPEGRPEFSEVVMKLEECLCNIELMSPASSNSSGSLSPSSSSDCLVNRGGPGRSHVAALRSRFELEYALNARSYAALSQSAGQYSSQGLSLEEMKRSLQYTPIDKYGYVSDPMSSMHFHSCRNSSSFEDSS

[9] = molecular target: STE20-like serine/threonine-protein kinase (Homo sapiens, UniProt Q9H2G2)
[10] = molecular target: Mitogen-activated protein kinase 11 (Homo sapiens, UniProt Q15759)
[11] = molecular target: Hepatocyte growth factor receptor (Homo sapiens, UniProt P08581)
[12] = molecular target: Calcium/calmodulin-dependent protein kinase type II subunit delta (Homo sapiens, UniProt Q13557)
[13] = molecular target: Cyclin-dependent kinase 8 (Homo sapiens, UniProt P49336)

Compound: CCN1CCN(Cc2ccc(NC(=O)Nc3ccc(Oc4cc(NC)ncn4)cc3)cc2C(F)(F)F)CC1 [AST-487]
- Kd [1]: > 10 µM

Compound: COCC(=O)NC/C=C/c1ccc2ncnc(Nc3ccc(Oc4ccc(C)nc4)c(C)c3)c2c1 [CP-724714]
- Kd [2]: > 10 µM
- Kd [3]: > 10 µM
- Kd [4]: > 10 µM
- Kd [5]: > 10 µM
- Kd [6]: > 10 µM
- Kd [7]: > 10 µM
- Kd [8]: > 10 µM
- Kd [1]: > 10 µM
- Kd [9]: > 10 µM
- Kd [10]: > 10 µM
- Kd [11]: > 10 µM
- Kd [12]: > 10 µM

Compound: Nc1nc(Nc2ccc(S(N)(=O)=O)cc2)nn1C(=O)c1c(F)cccc1F [JNJ-7706621]
- Kd [2]: > 10 µM
- Kd [3]: 5 µM
- Kd [5]: > 10 µM
- Kd [6]: 0.41 µM
- Kd [8]: 1.4 µM
- Kd [9]: 0.048 µM
- Kd [10]: > 10 µM
- Kd [12]: > 10 µM

Compound: CCOc1cc2ncc(C#N)c(Nc3ccc(F)c(Cl)c3)c2cc1NC(=O)/C=C/CN(C)C [PELITINIB]
- Kd [2]: 0.72 µM
- Kd [13]: > 10 µM
- Kd [3]: > 10 µM
- Kd [4]: > 10 µM
- Kd [5]: > 10 µM
- Kd [6]: > 10 µM
- Kd [7]: 2 µM
- Kd [8]: 7.2 µM
- Kd [1]: > 10 µM
- Kd [10]: > 10 µM
- Kd [11]: 6.2 µM
- Kd [12]: > 10 µM

Compound: Oc1ccc(-c2nc(-c3ccncc3)c(-c3ccc(F)cc3)[nH]2)cc1 [SB-202190]
- Kd [2]: > 10 µM
- Kd [13]: > 10 µM
- Kd [3]: > 10 µM
- Kd [4]: > 10 µM
- Kd [5]: > 10 µM
- Kd [6]: > 10 µM
- Kd [7]: > 10 µM
- Kd [8]: > 10 µM
- Kd [1]: > 10 µM
- Kd [9]: 3.2 µM
- Kd [11]: > 10 µM
- Kd [12]: > 10 µM

Compound: NC(=O)c1ccc(-c2nc(-c3ccc4c(c3)OCO4)c(-c3ccccn3)[nH]2)cc1 [SB-431542]
- Kd [2]: > 10 µM
- Kd [13]: > 10 µM
- Kd [3]: > 10 µM
- Kd [4]: > 10 µM
- Kd [5]: > 10 µM
- Kd [6]: > 10 µM
- Kd [8]: > 10 µM
- Kd [1]: > 10 µM
- Kd [9]: > 10 µM
- Kd [10]: > 10 µM
- Kd [11]: > 10 µM
- Kd [12]: > 10 µM
